Patent US11142515B2, “Pyrazolyl-ureas as kinase inhibitors” (RESPIVERT LIMITED, priority 2014, dated 2021)

How the values were obtained:
[1] = molecular target: T1, p38 MAPKα isoform (MAPK14) (Homo sapiens, UniProt Q16539); test: p38 MAPKα enzyme inhibition (Z-LYTE FRET); type: biochemical; settings: Table 2B, unit inferred; read-out: p38 MAPKα (Enzyme Profile)
T1 construct: purchased Life Technologies
Summary of the method: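 Activity was measured indirectly as phosphorylation of a MAPKAP-K2-derived FRET peptide. Enzyme (added at 40 ng/mL) was preincubated 2 h at RT with compound (added solutions 40–0.0012 μg/mL).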

p38MAPKγ (MAPK12) = molecular target: T2, p38MAPKγ (MAPK12) (Homo sapiens, UniProt P53778); test: p38 MAPKγ enzyme inhibition (Z-LYTE FRET); type: biochemical; settings: Table 2B, unit inferred; read-out: p38 MAPKγ (Enzyme Profile)
T2 construct: purchased Life Technologies
T2 sequence (P53778 1-367): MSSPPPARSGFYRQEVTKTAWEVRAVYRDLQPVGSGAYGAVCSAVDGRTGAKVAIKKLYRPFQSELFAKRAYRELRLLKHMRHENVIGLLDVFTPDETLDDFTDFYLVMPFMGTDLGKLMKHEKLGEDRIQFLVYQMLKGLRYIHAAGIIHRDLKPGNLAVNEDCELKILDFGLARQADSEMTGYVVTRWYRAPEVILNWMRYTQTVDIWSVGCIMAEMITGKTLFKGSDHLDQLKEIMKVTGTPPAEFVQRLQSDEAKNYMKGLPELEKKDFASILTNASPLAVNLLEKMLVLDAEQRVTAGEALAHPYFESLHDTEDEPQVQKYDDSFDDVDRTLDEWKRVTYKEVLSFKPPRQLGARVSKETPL
Summary of the method: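 Enzyme (added at 800 ng/mL) was preincubated 2 h at RT with compound (solutions of 40 to 0.0012 μg/mL), then FRET peptide (8 μM) and ATP (400 μM), both as added, were reacted 1 h at RT. Protease development followed for 1 h; phosphorylation was read as the coumarin/fluorescein emission ratio.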

d-U937 cells = test: Cell viability: MTT assay in differentiated U937 cells; type: cell-based, human; settings: 10 μg/mL
Procedure: Differentiated U937 cells were pre-incubated with each test compound (final concentration 10 μg/mL in 200 μL media indicated below) under two protocols: the first for 4 h in 5% FCS RPMI1640 media and the second in 10% FCS RPMI1640 media for 24 h. The supernatant was replaced with new media (200 μL) and MTT stock solution (10 μL, 5 mg/mL) was added to each well. After incubation for 1 h the media were removed, DMSO (200 μL) was added to each well and the plates were shaken lightly for 1 h prior to reading the absorbance at 550 nm. The percentage loss of cell viability was calculated for each well relative to vehicle (0.5% DMSO) treatment. Consequently an apparent increase in cell viability for drug treatment relative to vehicle is tabulated as a negative percentage.

T1 sequence (Q16539 whole entry, canonical isoform): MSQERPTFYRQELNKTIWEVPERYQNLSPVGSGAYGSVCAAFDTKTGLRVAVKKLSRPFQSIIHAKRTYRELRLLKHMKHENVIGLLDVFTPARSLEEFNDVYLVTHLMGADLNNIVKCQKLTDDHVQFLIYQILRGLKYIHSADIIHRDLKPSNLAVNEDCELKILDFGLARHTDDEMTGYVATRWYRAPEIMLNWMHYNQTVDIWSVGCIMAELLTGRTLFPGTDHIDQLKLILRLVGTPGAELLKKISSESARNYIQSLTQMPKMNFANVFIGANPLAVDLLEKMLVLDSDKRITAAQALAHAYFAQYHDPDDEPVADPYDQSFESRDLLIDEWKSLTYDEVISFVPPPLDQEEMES

Cc1ccc(-n2nc(C(C)(C)C)cc2NC(=O)Nc2ccc(OCc3ccnc(Nc4cnc(C(=O)N5CC[C@@H](N(C)C)C5)cn4)c3)c3ccccc23)cc1 [Example 259, (R)-1-(3-(tert-butyl)-1-(p-tolyl)-1H-pyrazol-5-yl)-3-(4-((2-((5-(3-(dimethylamino)pyrrolidine-1-carbonyl)pyrazin-2-yl)amino)pyridin-4-yl)methoxy)naphthalen-1-yl)urea]
IC50 [1]: 1.2 nM | IC50 (p38MAPKγ (MAPK12)): 146 nM

Cc1ccc(-n2nc(C(C)(C)C)cc2NC(=O)Nc2ccc(OCc3ccnc(Nc4cnc(C(=O)NCCN5CCN(C)CC5)cn4)c3)c3ccccc23)cc1 [Example 260, 5-((4-(((4-(3-(3-(tert-butyl)-1-(p-tolyl)-1H-pyrazol-5-yl)ureido)naphthalen-1-yl)oxy)methyl)pyridin-2-yl)amino)-N-(2-(4-methylpiperazin-1-yl)ethyl)pyrazine-2-carboxamide]
IC50 [1]: < 0.39 nM | IC50 (p38MAPKγ (MAPK12)): 47 nM

CN(C)Cc1cccc(-n2nc(C(C)(C)C)cc2NC(=O)Nc2ccc(OCc3ccnc(Nc4cnccn4)c3)c3ccccc23)c1 [Example 261, 1-(3-(tert-butyl)-1-(3-((dimethylamino)methyl)phenyl)-1H-pyrazol-5-yl)-3-(4-((2-(pyrazin-2-ylamino)pyridin-4-yl)methoxy)naphthalen-1-yl)urea]
IC50 [1]: < 0.47 nM | IC50 (p38MAPKγ (MAPK12)): 146 nM

COCc1cccc(-n2nc(C(C)(C)C)cc2NC(=O)Nc2ccc(OCc3ccnc(Nc4cnc(CN5CCOCC5)cn4)c3)c3ccccc23)c1 [Example 262, 1-(3-(tert-butyl)-1-(3-(methoxymethyl)phenyl)-1H-pyrazol-5-yl)-3-(4-((2-((5-(morpholinomethyl)pyrazin-2-yl)amino)pyridin-4-yl)methoxy)naphthalen-1-yl)urea]
IC50 [1]: 11 nM | IC50 (p38MAPKγ (MAPK12)): 174 nM

Cc1ccc(-n2nc(C(C)(C)C)cc2NC(=O)Nc2ccc(OCc3ccnc(Nc4cnc(CN5CCOCC5)cn4)c3)c3ccccc23)cc1 [Example 263, 1-(3-(tert-butyl)-1-(p-tolyl)-1H-pyrazol-5-yl)-3-(4-((2-((5-(morpholinomethyl)pyrazin-2-yl)amino)pyridin-4-yl)methoxy)naphthalen-1-yl)urea]
IC50 [1]: 21 nM | IC50 (p38MAPKγ (MAPK12)): 218 nM

COc1cc(-n2nc(C(C)(C)C)cc2NC(=O)Nc2ccc(OCc3ccnc(Nc4cnccn4)c3)c3ccccc23)ccn1 [Example 264, 1-(3-(tert-butyl)-1-(2-methoxypyridin-4-yl)-1H-pyrazol-5-yl)-3-(4-((2-(pyrazin-2-ylamino)pyridin-4-yl)methoxy)naphthalen-1-yl)urea]
IC50 [1]: 23 nM | IC50 (p38MAPKγ (MAPK12)): 109 nM

Cc1cc(-n2nc(C(C)(C)C)cc2NC(=O)Nc2ccc(OCc3ccnc(Nc4cnccn4)c3)c3ccccc23)ccn1 [Example 265, 1-(3-(tert-butyl)-1-(2-methyl-pyridin-4-yl)-1H-pyrazol-5-yl)-3-(4-((2-(pyrazin-2-ylamino)pyridin-4-yl)methoxy)naphthalen-1-yl) urea]
IC50 [1]: 11 nM | IC50 (p38MAPKγ (MAPK12)): 57 nM

Cc1ccc(-n2nc(C(C)(C)C)cc2NC(=O)Nc2ccc(OCc3ccnc(Nc4cnc(C(=O)NCCC5CCN(C)CC5)cn4)c3)c3ccccc23)cc1 [Example 266, 5-((4-(((4-(3-(3-(tert-butyl)-1-(p-tolyl)-1H-pyrazol-5-yl)ureido)naphthalen-1-yl)oxy)methyl)pyridin-2-yl)amino)-N-(2-(1-methyl-piperidin-4-yl)ethyl) pyrazine-2-carboxamide]
IC50 [1]: < 0.39 nM | IC50 (p38MAPKγ (MAPK12)): 51 nM

CN(C)Cc1ccc(-n2nc(C(C)(C)C)cc2NC(=O)Nc2ccc(OCc3ccnc(Nc4cnccn4)c3)c3ccccc23)cc1 [Example 267, 1-(3-(tert-butyl)-1-(4-((dimethylamino)methyl)phenyl)-1H-pyrazol-5-yl)-3-(4-((2-(pyrazin-2-ylamino)pyridin-4-yl)methoxy)naphthalen-1-yl)urea]
IC50 [1]: < 0.47 nM | IC50 (p38MAPKγ (MAPK12)): 2040 nM

Cc1ccc(-n2nc(C(C)(C)C)cc2NC(=O)Nc2ccc(OCc3ccnc(Nc4cnc(C(=O)NCCN(C)C)cn4)c3)c3ccccc23)cc1 [Example 268, 5-((4-(((4-(3-(3-(tert-butyl)-1-(p-tolyl)-1H-pyrazol-5-yl)ureido)naphthalen-1-yl)oxy)methyl)pyridin-2-yl)amino)-N-(2-(dimethylamino)ethyl) pyrazine-2-carboxamide]
IC50 [1]: < 0.42 nM | IC50 (p38MAPKγ (MAPK12)): 74 nM

COCc1cccc(-n2nc(C(C)(C)C)cc2NC(=O)Nc2ccc(OCc3ccnc(Nc4cnc(C(=O)N5CCN(C)CC5)cn4)c3)c3ccccc23)c1 [Example 269, 1-(3-(tert-butyl)-1-(3-(methoxymethyl)phenyl)-1H-pyrazol-5-yl)-3-(4-((2-((5-(4-methylpiperazine-1-carbonyl)pyrazin-2-yl)amino)pyridin-4-yl)methoxy)naphthalen-1-yl)urea]
IC50 [1]: < 0.4 nM | IC50 (p38MAPKγ (MAPK12)): 138 nM

COCc1cccc(-n2nc(C(C)(C)C)cc2NC(=O)Nc2ccc(OCc3ccnc(Nc4cnc(C(=O)NCCN5CCOCC5)cn4)c3)c3ccccc23)c1 [Example 270, 5-((4-(((4-(3-(3-(tert-butyl)-1-(3-(methoxymethyl)phenyl)-1H-pyrazol-5-yl)ureido)naphthalen-1-yl)oxy)methyl)pyridin-2-yl)amino)-N-(2-morpholinoethyl) pyrazine-2-carboxamide]
IC50 [1]: 4.5 nM | IC50 (p38MAPKγ (MAPK12)): 66 nM

COCC(=O)Nc1cc(Oc2ccc(NC(=O)Nc3cc(C(C)(C)C)nn3-c3ccc(C)cc3)c3ccccc23)ccn1 [Reference Compound, N-(4-(4-(3-(3-tert-butyl-1-p-tolyl-1H-pyrazol-5-yl)ureido)naphthalen-1-yloxy)pyridin-2-yl)-2-methoxyacetamide, reference compound]
MTT Assay Cell viability at time point indicated in d-U937 Cells, 4 h (d-U937 cells; 4 h): − (−ve and +ve indicate the value is below and above, respectively, the no significant effect threshold defined as 30% inhibition at 10 μg/mL at the time point indicated) | MTT Assay Cell viability at time point indicated in d-U937 Cells, 24 h (d-U937 cells; 24 h): + (−ve and +ve indicate the value is below and above, respectively, the no significant effect threshold defined as 30% inhibition at 10 μg/mL at the time point indicated)
